Reference: patent publication US9744252B2, “Compounds for binding to the platelet specific glycoprotein IIb/IIIa and their use for imaging of thrombi” (PIRAMAL IMAGING SA, priority 2011, dated 2017)
Values joined by “and” are separate entries in the source; they are usually repeats but may differ in a detail not shown here. Identical values can stand only once. “Also recorded” adds a separate entry of the source. Like-named read-outs stand apart in the source and are kept apart here. Values belong to the compound of their own block, whether it stands above or below them.

Key:
[1] = In vitro metabolic stability in liver microsomes, mouse; assay type: in vitro ADME; conditions: NMRI, female, 0.3 μM, calculated
Protocol: In Vitro Metabolic Stability in Liver Microsomes
The incubation concentration was 0.3 μM. […] The samples were frozen over night at −20° C.
The recovery was almost 100% for all investigated species.

[2] = both, human, 0.3 μM, pH 7.4
Protocol: (§1) Human liver microsomes in suspension (protein content 0.5 mg/mL) were used for metabolic stability studies. The incubation concentration was 0.3 μM. […] After addition of 30 μL of test compound the assay was started. The compound was dissolved in an organic solvent and diluted with the same liver microsome medium in order to keep the organic content below the recommended concentration (dimethylsulfoxide DMSO <0.2% and methanol <1%). […] The samples were frozen over night at −20° C. The solutions were centrifuged for 15 min at 3000 g. The clear supernatant (100 μL) was used to determine the concentration. The analysis was performed with an Agilent 1200 HPLC system with a LCMS/MS detector.
(§2) The susceptibility of investigated compounds to degradation by phase-I oxidative metabolism was investigated using liver microsomes from different species.

[3] = female, cynomolgus monkey, 0.3 μM, pH 7.4
Protocol: as §1, §2

[4] = male, Wistar, rat, 0.3 μM, pH 7.4
Protocol: as §1, §2

human thrombi = test: Ex vivo blood flow model: binding to human thrombi, with cold-compound competition; conditions: 3 minutes post-injection of 18F-labeled compound; ± SEM
Excerpt: Binding to Human Thrombi:
The binding of compounds to thrombi was further investigated in an ex vivo blood flow model similar to that described in “Wakhloo, A. K. et al. Thrombus and stroke 2008, in vitro models 57-66” but modified with regard to thrombus development. Briefly, an open handmade tube-set consisting of tygon-tubes (Tygon R-1000, part No AAU00007: I.D. 3.2 mm, O.D. 6.4 mm, Saint Gobain Performance Plastics North America), intermediate tubes (Intrafix® Infusion set, B. Braun, Melsungen, Germany) an open reservoir (10 mL Combitip, Eppendorf) and a chamber made of a piece of polyethylene-Tube, ([…] Polyethylene Tubing, Clay Adams, PE160, length: 6.5 cm) containing a loop of a roughened thread (fishing line: Okuma UltraMax whitefish, diameter: 0.14 mm, length: 5 cm; sandpaper: CAMI Grit designation: 600, CP918a, VSM) was used for thrombus formation. The connection between the intermediate tube and the thrombus chamber was made by trimmed tips (epTIPS, 200 μL, Eppendorff, Hamburg/Germany). The Reservoir and the thrombus chamber were fixed by clamps and stands. A peristaltic-pump (Minipuls 3, Gilson, Middelton/USA) was used to pump the blood around thereby adjusting the flow in the middle of the thrombus chamber to 70-90 cm per second, which was monitored by ultrasound Doppler measurement (Vevo 770 High-Resolution In Vivo Micro-Imaging System, VisualSonics, Toronto/Ontario, Canada; Scanhead: RMV 704, 40 MHz). The volume of the entire tube-set was 7.5 or 15 mL.
For each experiment fresh blood was taken from a volunteer using 10 mL citrate-tubes (Sarstedt S-Monovette 02.1067.001, 10 mL, Citrate 3.13%) and immediately laid into the turning-device of an incubator at a temperature of 37° C. (Heraeus miniTherm CTT with integrated rotation- and turning device, turning speed: 19 rotations per minute, Heraeus Instruments GmbH, Hanau/Germany). As needed, two tubes were taken out of the turning-device and 15 mL were transferred to a 20 mL Syringe (Omnifix®, B. Braun, Melsungen/Germany) and gently mixed with 0.75 mL CaCl2—Solution before the peristaltic pump was started and the whole content of the syringe was transferred into the reservoir of the tube-set via a cell strainer (BD Falcon™ cell strain, 40 μm, BD, Franklin Lakes, N.J. USA). […] Then, the pump was stopped, aliquots were taken from the blood and the thrombus together with the roughened thread was removed from the thrombus-chamber before both was weighted and measured in a gamma counter (Automatic Gamma Counter Wizard^2 3, Perkin Elmer). […] Finally the activity of the compound in blood and thrombus as well as the ratio between both was determined (cpm/weight [mg]). […]

[5] = In vitro metabolic stability in liver microsomes, human; conditions: all investigated species
Protocol: as §1, §2

[6] = Blood clearance in a cynomolgus monkey (PET and gamma counter); assay type: in vivo; conditions: 25 MBq i.v., PET
Protocol: FIG. 4: Blood kinetics of the compound described in example 40 in cynomolgus monkey.
PET-imaging was performed continuously from shortly before up to 60 minutes post injection. Venous blood samples were taken at 3, 10, 30 and 60 minutes p.i. and were measured in a gamma-counter (Automatic Gamma Counter Wizard^2 3, Perkin Elmer) and expressed as cpm/mg blood. Additionally, the blood-concentration of the compound was measured from the PET-Image over the whole imaging period and expressed as % ID/g.
Blood Clearance in a Cynomolgus Monkey
The blood clearance of the compound described in example 40 has been determined in a cynomolgus monkey. A female cynomolgus monkey was anesthetized with a mixture of Xylazin (Rompun®, Bayer HealthCare, Leverkusen, Germany), 0.12 mL/kg bodyweight and Ketamine (Ketavet®, Pfizer) 0.12 mL/kg bodyweight i.m. The monkey was placed inside the PET-scanner (Inveon PET/CT, Siemens Medical, Erlangen) and 25 MBq of the compound has been injected i.v. while PET-imaging was performed continuously from shortly before up to 60 minutes post injection. Venous blood samples were taken at 3, 10, 30 and 60 minutes p.i. and were measured in a gamma-counter (Automatic Gamma Counter Wizard^2 3, Perkin Elmer). Additionally, the blood-concentration of the compound was measured from the PET-Image over the whole imaging period (FIG. 4).

[7] = test system: arterial and venous thrombi; test: Thrombus PET imaging and in vivo clot-to-blood ratio in cynomolgus monkeys; design: species or system cynomolgus monkey
Protocol: Thrombus-Imaging in Cynomolgus Monkeys
The ability of the compound described in example 40 for the imaging of thrombi was investigated in a PET-study with cynomolgus monkeys (female, 2.8-3.2 kg).
The first monkey was anesthetized with a mixture of Xylazin (Rompun®, Bayer HealthCare, Leverkusen, Germany), 0.12 mL/Kg and Ketamine (Ketavet®, Pfizer) 0.12 mL/Kg b.w. i.m. and additionally analgesized by an i.m. injection of 6 μg Buprenorphine per kg. While the investigation, small amounts of Ketamine have been injected i.m. if required. The left common carotid artery was exposed surgically and a polyethylene-tube ([…] Polyethylene Tubing, Clay Adams, PE50), which was roughened previously by sandpaper (600—CAMI Grit designation), was inserted into the vessel, advanced into the descending aorta and was left there for 30 minutes to allow for the development of a thrombus on the rough surface of the tube. Meanwhile, the monkey was placed inside the PET-scanner (Inveon PET/CT, Siemens Medical, Erlangen). […] The thickness of this layer was far below 1 mm (see also removed thrombus of Monkey 2, FIG. 7) and therewith also far below the resolution of the image, which is approximately 1 mm. This also means, that even slightest thrombi, even if their size is far less than the resolution of the imaging-device, can be visualized due to the massive accumulation of compound on the platelets of the thrombi.
At the end of the experiment the tube was removed carefully from the vessel before it was weighted and measured in a gamma counter (Automatic Gamma Counter Wizard^2 3, Perkin Elmer). […] Finally the activity of the compound in blood and thrombus as well as the ratio between the two was determined (cpm/weight [mg]). […]
The in vivo clot-to-blood ratio was determined from 5 thrombi out of the above described monkey experiments. As already mentioned above the thrombi had been removed from the vessels after imaging and had been weighted and measured in a gamma-counter (Automatic Gamma Counter Wizard^2 3, Perkin Elmer) together with blood samples taken from the animal. After incubation of the thrombi in Plasmin (Plasmin from Human Plasma, Sigma Aldrich, Plasmin-stock-solution: 500 μg Plasmin in 500 μL Tris-buffer (150 μM, pH 7.8), 20 μL Plasmin-stock-solution to 230 μL saline solution 0.9%) and removal of the thrombi from the catheter tubes, the netto weight of the thrombi was calculated and the concentration of the compound in thrombus (clot) and blood, as well as the ratio between the two was calculated.

[8] = Pharmacokinetics / biodistribution in mice; assay type: in vivo; conditions: nude mice, 185 KBq
Protocol: FIG. 3: Biodistribution of the compound described in example 41 in mice.
The biodistribution of the compound described in example 41 was determined in nude mice. Briefly, the mice received 185 KBq of the compound each. At different time points (1, 3, 10, 30, 120 minutes p.i., 3 mice per group) the animals were sacrificed and the organs of interest or aliquots thereof were removed, weighted and finally measured in a gamma counter (Automatic Gamma Counter Wizard^2 3, Perkin Elmer).

Compound: O=C(O)C[C@H](NC(=O)[C@@H]1CCCN(C(=O)CCC2CCNCC2)C1)c1cncc(OCCF)c1 [Example 3, (3S)-3-[5-(2-Fluoroethoxy)pyridin-3-yl]-3-[({(3R)-1-[3-(piperidin-4-yl)propanoyl]-piperidin-3-yl}carbonyl)amino]propanoic acid]
- CLblood [1]: 2.4 mL/day/kg
- CLblood [2]: 2.4 mL/day/kg
- CLblood [3]: 2.4 mL/day/kg
- CLblood [4]: 2.4 mL/day/kg

Compound: N#Cc1cc(-c2cncc([C@H](CC(=O)O)NC(=O)[C@@H]3CCCN(C(=O)CCC4CCNCC4)C3)c2)ccc1[18F] [Example 42, (3S)-3-[5-(3-Cyano-4-[^18F]fluorophenyl)pyridin-3-yl]-3-[({(3R)-1-[3-(piperidin-4-yl)propanoyl]piperidin-3-yl}carbonyl)amino]propanoic acid]
- Accumulation Thrombus [10^3 cpm/mg] (human thrombi): 39 ± 5 (n = 6) 10^3 cpm/mg

Compound: O=C(O)C[C@H](NC(=O)[C@@H]1CCCN(C(=O)CCC2CCNCC2)C1)c1cncc(OCCF)c1 [Compound 3]
- recovery [5]: ~100%

Compound: O=C(O)C[C@H](NC(=O)[C@@H]1CCCN(C(=O)CCC2CCNCC2)C1)c1ccc(OCC[18F])cc1 [Example 39, (3S)-3-[4-(2-[^18F]Fluoroethoxy)phenyl]-3-[({(3R)-1-[3-(piperidin-4-yl)propanoyl]piperidin-3-yl}carbonyl)amino]propanoic acid]
- Accumulation Thrombus [10^3 cpm/mg] (human thrombi): 86 ± 9 (n = 6) 10^3 cpm/mg

Compound: O=C(O)C[C@H](NC(=O)[C@@H]1CCCN(C(=O)CCC2CCNCC2)C1)c1cccc(OCC[18F])c1 [Example 38, (3S)-3-[3-(2-[^18F]Fluoroethoxy)phenyl]-3-[({(3R)-1-[3-(piperidin-4-yl)propanoyl]piperidin-3-yl}carbonyl)amino]propanoic acid]
- Accumulation Thrombus [10^3 cpm/mg] (human thrombi): 41 ± 3 (n = 5) 10^3 cpm/mg

- contrast in the brain [6]: completely free of contrast
- Blood [cpm/mg] ([7]; blood samples after imaging, Cynomolgus monkey): 90 cpm/mg and 130 cpm/mg and 100 cpm/mg
Compound: O=C(O)C[C@H](NC(=O)[C@@H]1CCCN(C(=O)CCC2CCNCC2)C1)c1cncc(OCC[18F])c1 [Example 40, (3S)-3-[5-(2-[^18F]Fluoroethoxy)pyridin-3-yl]-3-[({(3R)-1-[3-(piperidin-4-yl)propanoyl]piperidin-3-yl}carbonyl)amino]propanoic acid]
- signal in other tissue [6]: only marginal signal visible in any other tissue
- PET signal / accumulation in thrombi ([7]; cynomolgus monkeys, 25 MBq or 15 MBq i.v., up to 60 minutes p.i.): bright signal inside the descending aorta alongside the roughened part of the tube; also recorded: all arterial and venous thrombi showed a bright signal; also recorded: surprisingly high accumulation even in slightest venous and arterial thrombi
- retention within the thrombus ([7]; cynomolgus monkeys, 60 minutes shown): almost completely remains within the thrombus over a long time
- background in surrounding tissue or organ ([7]; cynomolgus monkeys, PET): almost no background in any surrounding tissue or organ

- elimination from the blood [8]: rapidly eliminated from the blood
- enhancement in the vessel-wall [8]: no enhancement in the vessel-wall
Compound: O=C(O)C[C@H](NC(=O)[C@@H]1CCCN(C(=O)CCC2CCNCC2)C1)c1cncc(-c2ccc(OCC[18F])cc2)c1 [Example 41, (3S)-3-{5-[4-(2-[^18F]Fluoroethoxy)phenyl]pyridin-3-yl}-3-[({(3R)-1-[3-(piperidin-4-yl)propanoyl]piperidin-3-yl}carbonyl)amino]propanoic acid]
- Accumulation Thrombus [10^3 cpm/mg] (human thrombi): 44 ± 7 (n = 6) 10^3 cpm/mg
- excretion [8]: quickly excreted over the kidney and liver
